The values that follow come from ChEMBL document CHEMBL1143852, “Controlled trial of a 5-day course of telithromycin versus doxycycline for treatment of mild to moderate scrub typhus” (2007).

Each structure is given as a SMILES string.

The subject of this experiment is Orientia tsutsugamushi. Kind of experiment: Antimicrobial activity against doxycyclin-resistant Orientia tsutsugamushi in patient of scrub typhus assessed as recovery from infection. The class given is functional.

With `C[C@H]1c2cccc(O)c2C(=O)C2=C(O)[C@]3(O)C(=O)C(C(N)=O)=C(O)[C@@H](N(C)C)[C@@H]3[C@@H](O)[C@@H]21.O` [DOXYCYCLINE], the Activity is recorded as 97.8%. Under `CC[C@H]1OC(=O)[C@H](C)C(=O)[C@H](C)[C@@H](O[C@@H]2O[C@H](C)C[C@H](N(C)C)[C@H]2O)[C@](C)(OC)C[C@@H](C)C(=O)[C@H](C)[C@H]2N(CCCCn3cnc(-c4cccnc4)c3)C(=O)O[C@]12C` [TELITHROMYCIN] stands 100%.
